{"source": "paper PMC6925188", "about": "“PBRM1 acts as a p53 lysine-acetylation reader to suppress renal tumor growth” (Nature Communications, 2019)", "test_system": "PBRM1-p53 interaction", "experiment": "Co-immunoprecipitation of Flag-PBRM1 and Myc-p53 (anti-Flag M2) in H1299 cells", "type": "cell-based", "text": "Fig. 1 PBRM1 and p53 display a physical association that is enhanced after DNA damage. a U2OS cells (left) and HEK293T cells (right) were transfected with vector or Flag-PBRM1 and harvested for immunoprecipitation with Flag-M2 beads and elution with 3X Flag peptide. […] Lysates were subjected to immunoprecipitation with Flag-M2 beads. […] Lysates were immunoprecipitated with p53 antibody. The bound PBRM1 and p53 were examined by immunoblots. Source data are provided as a Source Data file.\nFor anti-Flag immunoprecipitation, cell pellets harvested from one 10 cm culture dish were resuspended in 500 µl hypotonic buffer (10 mM Tris-HCl, pH 8.0, 1.5 mM MgCl2, 10 mM KCl) with protease and phosphatase inhibitors, 2 μM TSA and 10 mM NAM, and samples were incubated on ice for 15 min. Twenty-five microliters of Triton X-100 was added and samples were vortexed for 10 s. After centrifuging for 30 s at 14,000 × g, supernatants were removed and pellets were resuspended in 100 µl hypertonic buffer (20 mM Tris-HCl pH 8.0, 420 mM KCl, 1.5 mM MgCl2, 20% (v/v) glycerol) with protease and phosphatase inhibitors, 2 μM TSA and 10 mM NAM and vortexed for 10 s. Pellets were incubated on ice for 40 min and vortexed for 15 s every 10 min. After centrifuging for 10 min at 14,000 × g, supernatants were collected and diluted with 300 µl EBC buffer (50 mM Tris-HCl (pH 7.5), 120 mM NaCl, 0.5% NP-40) with protease and phosphatase inhibitors, 2 μM TSA and 10 mM NAM. […] Beads were washed four times with EBC buffer and eluted with 3X Flag peptide (F4799, Sigma-Aldrich) overnight at 4 °C. The input and Flag-elution were analyzed by SDS-PAGE and immunoblot.\nSupplementary Figure 2. […]\na. Vectors, Flag-PBRM1 or Myc-p53 were transfected into H1299 cells as indicated, and treated with 5 µM nicotinamide or vehicle. Lysates were used for anti-Flag immunoprecipitation and 3X Flag peptide elution. The inputs and eluates were immunoblotted with the indicated antibodies. […]\nFlag-PBRM1, wildtype or K382Q mutated Myc-p53 were transfected into H1299 cells with indicated combinations. Lysates were used for anti-Flagimmunoprecipitation followed by Flag peptide elution. […]"}
{"compound": "COc1cc([C@@H]2c3cc4c(cc3[C@@H](O[C@@H]3O[C@@H]5CO[C@@H](C)O[C@H]5[C@H](O)[C@H]3O)[C@H]3COC(=O)[C@H]23)OCO4)cc(OC)c1O", "note": "[Etoposide]", "values": [{"measurement": "PBRM1 and exogenous p53 protein levels", "setting": "H1299, etoposide 50 μM or bleomycin 10 μg/ml", "result": "neither the PBRM1 nor the exogenous p53 levels changed"}, {"measurement": "PBRM1-p53 interaction", "setting": "H1299 co-transfected with PBRM1 and p53, etoposide 50 μM", "result": "enhanced"}]}
